Our source for the IC50 values is US11426473B2, “Nitrogen-containing compound or salt thereof, or metal complex thereof” (FUJIFILM Corporation, priority 2013, dated 2022).

One assay deals with T1, Integrin αvβ5 (Homo sapiens, UniProt P06756+P18084).
T1 construct: purchased Chemicon International, Inc
Kind of assay: Integrin αvβ5 binding affinity test. As to the method:
(§1) […] αvβ5 (Chemicon International, Inc.) was immobilized on each well of a 96-well plate (Corning Inc.). Each well was blocked with a 1% Block Ace (DS Pharma Biomedical Co., Ltd) solution and then washed with PBST (10 mM Na2HPO4 pH 7.5, 150 mM NaCl, and 0.01% Tween 20). Evaluation compound solutions having a 2-fold concentration (10 concentrations of 3.16-fold dilutions from 0.3 μmol/L, buffer (20 mM Tris-HCl pH 7.5, 150 mM NaCl, 1 mM CaCl2, 1 mM MgCl2, and 1 mM MnCl2)) and a 4 μg/mL biotinylated vitronectin solution (vitronectin (Upstate Biotechnology Inc.) was labeled with EZ-Link Sulfo-NHS-Biotinylation Kit (Pierce/Thermo Fisher Scientific Inc.) and then concentration-adjusted) were each added at 50 μL/well, and the plate was shaken at room temperature for 2 hours. After washing with PBST, a 0.2 μg/mL avidin peroxidase (Pierce/Thermo Fisher Scientific Inc.) solution was added thereto, and the plate was shaken at room temperature for 1 hour. After washing with PBST, color was developed by an o-phenylenediamine (Sigma-Aldrich Inc.) solution (the reaction was terminated by the addition of 4 mol/L sulfuric acid), and the absorbance was measured (490 nm, Reference: 595 nm). The IC50 value was calculated using XLfit 3.0 (ID Business Solutions Ltd.). RGDfV (Bachem AG) was measured in duplicate as a QC sample for each plate.

The target in the next assay is T2, Integrin αvβ3 (Homo sapiens, UniProt P05106+P06756).
T2 construct: purchased Chemicon International, Inc
The assay is described as follows: Integrin αvβ3 binding affinity test. The protocol: as §1, with “αvβ3” for “αvβ5”, “T-PBS (PBS containing 0.05%” for “PBST (10 mM Na2HPO4 pH 7.5, 150 mM NaCl, and 0.01%”, “T-PBS,” for “PBST,”

Where [1] appears, read: inhibition of biotinylated vitronectin binding to immobilized αvβ5, read-out: IC50 value αvβ5.
[2] abbreviates: inhibition of biotinylated vitronectin binding to immobilized αvβ3, read-out: IC50 value αv β3.

Counter-ions that a name gives are not always drawn. Like-named read-outs stand apart in the source and are kept apart here. Where only a bound is given, the exact number is not on record here.

T1 sequence (P06756 31-889 limits assumed): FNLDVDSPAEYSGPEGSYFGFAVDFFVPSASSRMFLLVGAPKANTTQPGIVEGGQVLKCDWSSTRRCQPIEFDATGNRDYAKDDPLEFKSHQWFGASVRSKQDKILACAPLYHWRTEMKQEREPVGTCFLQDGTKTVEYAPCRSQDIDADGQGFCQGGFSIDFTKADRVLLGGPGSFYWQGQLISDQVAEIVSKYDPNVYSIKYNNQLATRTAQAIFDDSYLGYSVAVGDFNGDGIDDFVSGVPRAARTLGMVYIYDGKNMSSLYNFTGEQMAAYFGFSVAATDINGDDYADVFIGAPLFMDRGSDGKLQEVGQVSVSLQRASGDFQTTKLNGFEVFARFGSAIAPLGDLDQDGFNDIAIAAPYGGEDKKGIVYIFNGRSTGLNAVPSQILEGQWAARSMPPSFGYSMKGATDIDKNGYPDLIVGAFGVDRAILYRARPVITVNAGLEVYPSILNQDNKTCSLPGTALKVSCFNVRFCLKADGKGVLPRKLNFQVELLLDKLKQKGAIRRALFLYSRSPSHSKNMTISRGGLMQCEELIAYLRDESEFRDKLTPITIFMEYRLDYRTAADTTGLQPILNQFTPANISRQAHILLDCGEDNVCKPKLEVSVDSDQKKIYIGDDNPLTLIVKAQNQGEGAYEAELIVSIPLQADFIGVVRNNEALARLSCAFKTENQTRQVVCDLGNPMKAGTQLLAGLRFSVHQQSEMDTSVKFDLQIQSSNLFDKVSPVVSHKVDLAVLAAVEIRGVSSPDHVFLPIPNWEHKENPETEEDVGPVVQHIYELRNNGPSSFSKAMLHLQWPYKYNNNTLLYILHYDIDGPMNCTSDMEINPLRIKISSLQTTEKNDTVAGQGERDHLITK
T1 sequence (P06756 891-1048 partner limits assumed): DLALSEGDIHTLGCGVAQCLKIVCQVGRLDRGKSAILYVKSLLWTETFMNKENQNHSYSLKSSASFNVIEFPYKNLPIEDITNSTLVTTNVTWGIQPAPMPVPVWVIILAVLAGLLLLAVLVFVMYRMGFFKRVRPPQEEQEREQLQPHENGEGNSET
T1 sequence (P18084 24-799): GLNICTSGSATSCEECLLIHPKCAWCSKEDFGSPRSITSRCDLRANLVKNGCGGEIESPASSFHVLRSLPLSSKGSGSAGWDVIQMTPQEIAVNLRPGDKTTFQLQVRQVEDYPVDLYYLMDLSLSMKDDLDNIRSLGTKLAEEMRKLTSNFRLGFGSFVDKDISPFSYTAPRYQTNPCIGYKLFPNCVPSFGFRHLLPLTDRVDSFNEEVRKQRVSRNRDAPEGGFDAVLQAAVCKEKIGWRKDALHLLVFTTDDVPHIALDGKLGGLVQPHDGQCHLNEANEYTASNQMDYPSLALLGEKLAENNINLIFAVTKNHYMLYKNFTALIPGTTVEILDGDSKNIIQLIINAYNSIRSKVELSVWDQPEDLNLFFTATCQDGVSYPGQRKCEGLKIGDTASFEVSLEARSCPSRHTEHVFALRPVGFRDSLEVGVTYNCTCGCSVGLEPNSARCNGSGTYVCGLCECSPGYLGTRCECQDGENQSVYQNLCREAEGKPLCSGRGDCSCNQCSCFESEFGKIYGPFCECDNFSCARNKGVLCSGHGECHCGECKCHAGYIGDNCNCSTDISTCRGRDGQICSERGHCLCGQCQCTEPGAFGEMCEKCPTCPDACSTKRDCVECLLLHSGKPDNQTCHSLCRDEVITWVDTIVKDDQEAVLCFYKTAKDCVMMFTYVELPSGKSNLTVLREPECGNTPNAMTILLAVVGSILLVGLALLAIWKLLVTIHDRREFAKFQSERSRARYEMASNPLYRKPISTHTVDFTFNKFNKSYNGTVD
T2 sequence (P06756 31-889 limits assumed): as the sequence (P06756 31-889 limits assumed) above
T2 sequence (P06756 891-1048 partner limits assumed): as the sequence (P06756 891-1048 partner limits assumed) above
T2 sequence (P05106 27-788): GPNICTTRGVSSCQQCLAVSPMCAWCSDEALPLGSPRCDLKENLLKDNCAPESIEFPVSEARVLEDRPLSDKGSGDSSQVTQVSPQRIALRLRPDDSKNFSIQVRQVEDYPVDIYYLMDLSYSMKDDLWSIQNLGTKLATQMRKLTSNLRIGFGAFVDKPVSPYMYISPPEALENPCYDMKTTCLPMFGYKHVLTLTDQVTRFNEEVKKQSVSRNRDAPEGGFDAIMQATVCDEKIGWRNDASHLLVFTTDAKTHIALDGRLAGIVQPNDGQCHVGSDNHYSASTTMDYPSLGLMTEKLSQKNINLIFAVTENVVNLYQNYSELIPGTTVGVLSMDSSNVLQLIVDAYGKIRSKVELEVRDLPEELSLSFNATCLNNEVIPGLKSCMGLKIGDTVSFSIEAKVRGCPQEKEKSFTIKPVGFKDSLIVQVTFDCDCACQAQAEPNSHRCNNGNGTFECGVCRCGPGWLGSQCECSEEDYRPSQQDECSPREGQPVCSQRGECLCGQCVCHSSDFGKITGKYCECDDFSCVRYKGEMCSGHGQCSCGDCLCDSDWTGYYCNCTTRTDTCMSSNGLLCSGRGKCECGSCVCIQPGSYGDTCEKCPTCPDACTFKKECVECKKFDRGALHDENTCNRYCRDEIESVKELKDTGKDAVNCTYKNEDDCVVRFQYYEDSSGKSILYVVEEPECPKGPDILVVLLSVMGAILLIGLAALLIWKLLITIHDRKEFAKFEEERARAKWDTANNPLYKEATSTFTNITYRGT

As usually defined, the IC50 is the point on the concentration scale where inhibition reaches its midpoint. `Cc1cc(OCCCC(=O)NCCNC(=O)[C@H](CS(=O)(=O)O)NC(=O)CN2CCN(CC(=O)O)CCN(CC(=O)O)CCN(CC(=O)O)CC2)cc(C)c1S(=O)(=O)N[C@@H](CNC(=O)c1ccc(CCc2cccc(N)n2)cc1)C(=O)O` [Compound M2, 2,2′,2″-(10-(2-(((R)-1-((2-(4-(4-(N—((S)-2-(4-(2-(6-aminopyridin-2-yl)ethyl)benzamido)-1-carboxyethyl)sulfamoyl)-3,5-dimethylphenoxy)butanamido)ethyl)amino)-1-oxo-3-sulfopropan-2-yl)amino)-2-oxoethyl)-1,4,7,10-tetraazacyclododecane-1,4,7-triyl)triacetic acid]: the IC50 on Integrin αvβ5 (setting [1]) and at Integrin αvβ3 (setting [2]) was less than 1 nM in each case.
In the case of `Cc1cc(OCCCC(=O)NCCNC(=O)[C@H](CS(=O)(=O)O)NC(=O)[C@H](CS(=O)(=O)O)NC(=O)CN2CCN(CC(=O)O)CCN(CC(=O)O)CCN(CC(=O)O)CC2)cc(C)c1S(=O)(=O)N[C@@H](CNC(=O)c1ccc(CCc2cccc(N)n2)cc1)C(=O)O` [Compound N3, 2,2′,2″-(10-((4R,7R)-16-(4-(N—((S)-2-(4-(2-(6-aminopyridin-2-yl)ethyl)benzamido)-1-carboxyethyl)sulfamoyl)-3,5-dimethylphenoxy)-2,5,8,13-tetraoxo-4,7-bis(sulfomethyl)-3,6,9,12-tetraazahexadecyl)-1,4,7,10-tetraazacyclododecane-1,4,7-triyl)triacetic acid], the half-maximal inhibitory concentration (IC50) on Integrin αvβ5 (setting [1]) and at Integrin αvβ3 (setting [2]) was less than 1 nM throughout.
Take `Cc1cc(OCCCC(=O)NCCNC(=O)[C@H](CS(=O)(=O)O)NC(=O)[C@H](CS(=O)(=O)O)NC(=O)CN2CCN(CC(=O)O)CCN(CC(=O)O)CCN(CC(=O)O)CC2)cc(C)c1S(=O)(=O)N[C@@H](CNC(=O)CCCCc1ccc2c(n1)NCCC2)C(=O)O` [Compound O10, 2,2′,2′-(10-((4R,7R)-16-(4-(N—((S)-1-carboxy-2-(5-(5,6,7,8-tetrahydro-1,8-naphthyridin-2-yl)pentanamido)ethyl)sulfamoyl)-3,5-dimethylphenoxy)-2,5,8,13-tetraoxo-4,7-bis(sulfomethyl)-3,6,9,12-tetraazahexadecyl)-1,4,7,10-tetraazacyclododecane-1,4,7-triyl)triacetic acid]: the IC50 at Integrin αvβ5 (setting [1]) and at Integrin αvβ3 (setting [2]) was less than 1 nM each time.
Regarding `Cc1cc(OCCCC(=O)NCCNC(=O)[C@H](CS(=O)(=O)O)NC(=O)CN2CCN(CC(=O)O)CCN(CC(=O)O)CCN(CC(=O)O)CC2)cc(C)c1S(=O)(=O)N[C@@H](CNC(=O)CCCCc1ccc2c(n1)NCCC2)C(=O)O` [Compound P2, 2,2′,2′-(10-(2-(((R)-1-((2-(4-(4-(N—((S)-1-carboxy-2-(5-(5,6,7,8-tetrahydro-1,8-naphthyridin-2-yl)pentanamido)ethyl)sulfamoyl)-3,5-dimethylphenoxy)butanamido)ethyl)amino)-1-oxo-3-sulfopropan-2-yl)amino)-2-oxoethyl)-1,4,7,10-tetraazacyclododecane-1,4,7-triyl)triacetic acid], the IC50 at Integrin αvβ5 (setting [1]) and on Integrin αvβ3 (setting [2]) was less than 1 nM in each case.
For `Cc1cc(OCCCC(=O)NCCNC(=O)[C@H](CS(=O)(=O)O)NC(=O)[C@H](CS(=O)(=O)O)NC(=S)Nc2ccc(C[C@@H](CN(CC(=O)O)CC(C)N(CC(=O)O)CC(=O)O)N(CC(=O)O)CC(=O)O)cc2)cc(C)c1S(=O)(=O)N[C@@H](CNC(=O)c1ccc(CCc2ccc3c(n2)NCCC3)cc1)C(=O)O` (stereo partly drawn) [Compound R3, 2,2′-((1-(((S)-2-(bis(carboxymethyl)amino)-3-(4-(3-((R)-1-(((R)-1-((2-(4-(4-(N—((S)-1-carboxy-2-(4-(2-(5,6,7,8-tetrahydro-1,8-naphthyridin-2-yl)ethyl)benzamido)ethyl)sulfamoyl)-3,5-dimethylphenoxy)butanamido)ethyl)amino)-1-oxo-3-sulfopropan-2-yl)amino)-1-oxo-3-sulfopropan-2-yl)thioureido)phenyl)propyl) (carboxymethyl)amino)propan-2-yl)azanediyl)diacetic acid], the IC50 on Integrin αvβ5 (setting [1]) and at Integrin αvβ3 (setting [2]) was less than 1 nM each time.
`Cc1cc(OCCCC(=O)NCCNC(=O)CN2CCN(CC(=O)O)CCN(CC(=O)O)CCN(CC(=O)O)CC2)cc(C)c1S(=O)(=O)N[C@@H](CNC(=O)c1ccc(CCc2ccc3c(n2)NCCC3)cc1)C(=O)O` [Compound S2, (S)-2,2′,2″-(10-(2-((2-(4-(4-(N-(1-carboxy-2-(4-(2-(5,6,7,8-tetrahydro-1,8-naphthyridin-2-yl)ethyl)benzamido)ethyl)sulfamoyl)-3,5-dimethylphenoxy)butanamido)ethyl)amino)-2-oxoethyl)-1,4,7,10-tetraazacyclododecane-1,4,7-triyl)triacetic acid]: the half-maximal inhibitory concentration (IC50) at Integrin αvβ5 (setting [1]) and at Integrin αvβ3 (setting [2]) was less than 1 nM throughout.
As to `Cc1cc(OCCCC(=O)NCCNC(=O)[C@H](CS(=O)(=O)O)NC(=O)CN2CCN(CC(=O)O)CCN(CC(=O)O)CCN(CC(=O)O)CC2)cc(C)c1S(=O)(=O)N[C@@H](CNC(=O)CCCCCc1ccc2c(n1)NCCC2)C(=O)O` [Compound W10, 2,2′,2″-(10-(2-(((R)-1-((2-(4-(4-(N—((S)-1-carboxy-2-(6-(5,6,7,8-tetrahydro-1,8-naphthyridin-2-yl)hexanamido)ethyl)sulfamoyl)-3,5-dimethylphenoxy)butanamido)ethyl)amino)-1-oxo-3-sulfopropan-2-yl)amino)-2-oxoethyl)-1,4,7,10-tetraazacyclododecane-1,4,7-triyl)triacetic acid], the 50% inhibitory concentration (IC50) on Integrin αvβ5 (setting [1]) was 1 to 10 nM; on Integrin αvβ3 (setting [2]) it was less than 1 nM.
Consider `Cc1cc(OCCCC(=O)NCCNC(=O)[C@H](CS(=O)(=O)O)NC(=O)[C@H](CS(=O)(=O)O)NC(=O)CN2CCN(CC(=O)O)CCN(CC(=O)O)CCN(CC(=O)O)CC2)cc(C)c1S(=O)(=O)N[C@@H](CNC(=O)c1ccc(CCc2ccc3c(n2)NCCC3)s1)C(=O)O` [Compound X9, 2,2′,2″-(10-((4R,7R)-16-(4-(N—((S)-1-carboxy-2-(5-(2-(5,6,7,8-tetrahydro-1,8-naphthyridin-2-yl)ethyl)thiophene-2-carboxamido)ethyl)sulfamoyl)-3,5-dimethylphenoxy)-2,5,8,13-tetraoxo-4,7-bis(sulfomethyl)-3,6,9,12-tetraazahexadecyl)-1,4,7,10-tetraazacyclododecane-1,4,7-triyl)triacetic acid], for which the half-inhibitory concentration (IC50) on Integrin αvβ5 (setting [1]) was 1 to 10 nM; at Integrin αvβ3 (setting [2]), less than 1 nM.
For `O=C(O)CN1CCN(CC(=O)O)CCN(CC(=O)N[C@@H](CS(=O)(=O)O)C(=O)N[C@@H](CS(=O)(=O)O)C(=O)NCCNC(=O)CCCOc2ccc(S(=O)(=O)N[C@@H](CNC(=O)c3ccc(CCc4ccc5c(n4)NCCC5)cc3)C(=O)O)cc2)CCN(CC(=O)O)CC1` [Compound Y13, 2,2′,2″-(10-((4R,7R)-16-(4-(N—((S)-1-carboxy-2-(4-(2-(5,6,7,8-tetrahydro-1,8-naphthyridin-2-yl)ethyl)benzamido)ethyl)sulfamoyl)phenoxy)-2,5,8,13-tetraoxo-4,7-bis(sulfomethyl)-3,6,9,12-tetraazahexadecyl)-1,4,7,10-tetraazacyclododecane-1,4,7-triyl)triacetic acid hexasodium salt] the same measures were less than 1 nM and less than 1 nM.
In the case of `Cc1cc(OCCCC(=O)NCCNC(=O)C(CS(=O)(=O)O)NC(=O)CN2CCN3CCN4CCN(CC2)CC(=O)[O][Y]([O]C(=O)C3)[O]C(=O)C4)cc(C)c1S(=O)(=O)NC(CNC(=O)CCCCc1ccc2c(n1)NCCC2)C(=O)O` (centres unmarked) [DD], the IC50 at Integrin αvβ5 and on Integrin αvβ3 was less than 1 nM in each case.
